# Read-outs that look alike come from different tables or passages of the source.
# Assays:
# [1] = system: malignant gliomas U-87MG and U-373MG; assay: In vivo study with tumor-implanted nude mice (Example 4); details: daily dosages
# Method: An effect of the treatment of tumor-implanted nude mice (Pinski et al., supra) each with one of the GnRH agonists Buserelin, Triptorelin, Goserelin, and Leuprorelin and each with one of the GnRH antagonists Cetrorelix® (SB-75), Antarelix®, Antide®, and Ramorelix® on the growth of malignant gliomas U-87MG and U-373MG was carried out using daily dosages and controls in nude mice using analysis techniques described for the determination of the efficacy of similar peptides in Pinski et al., supra.
# BLM melanoma cells = assay: Cell proliferation studies, BLM cells; format: cell-based, human; details: 10^−11-10^−6 M, daily for 7 days
# Method: BLM cells were plated at a density of 700 cells/cm^2 in […] in culture medium. Cells were allowed to attach and start growing for 3 days; the seeding media were then changed. Cells were treated daily (the drug was added to the medium every day), for 7 days, with LHRH-A (10^−11-10^−6 M); the medium was changed at every two days. At the end of the treatment, cells were collected and counted by hemocytometer.
# To confirm the specificity of the action of LHRH-A on melanoma cell proliferation, it was investigated whether the effects of the LHRH agonist might be counteracted by a potent GnRH antagonist. A preliminary experiment was performed to select the dose of the GnRH antagonist (ANT) to be used. To this purpose, BLM cells were treated daily with ANT at different doses (10^−11-10^−6 M).) Cells were harvested and counted after 7 days of treatment. Subsequently, BLM cells were treated daily, for 7 days, with LHRH-A (10^−7 M), either in the absence or in the presence of ANT (10^−7 M). Cells were counted 7 days after the beginning of the treatment.
# All proliferation experiments were performed in four to six replicates. The data obtained from three independent experiments were analyzed according to the Dunnett's test after one-way ANOVA.
# Me15392 melanoma cells = assay: Cell proliferation studies, Me15392 cells; format: cell-based, human; details: 10^−11-10^−6 M, 7 days
# Method: The antiproliferative action of GnRH agonists on melanoma cells is further investigated in another melanoma cell line (Me15392). These experiments have been carried out as described above for BLM cells (same GnRH agonist, same doses of the drug and same length of treatment, etc.). All proliferation experiments were performed in four to six replicates. The data obtained from three independent experiments were analyzed according to the Dunnett's test after one-way ANOVA.
# BLM cells = assay: In vivo study in nude mice inoculated with malignant melanoma, low dosage experiment; details: 100 μg per mouse daily, 2-3 weeks
# Method: Sixteen male nude mice were injected s.c. in the flank with 1×10^6 (0.2 ml/mouse) BLM cells. The treatment started the same day: Eight mice received daily 100 μg […]® per mouse in 200 μl saline. Eight control mice were treated with 200 μl saline each. The treatment lasted 2-3 weeks. Every 2 to 3 days the volume of the tumors was determined by caliper.
# U-87MG cells = format: cell-based, human; details: for inhibition versus controls: 7 days
# Method: U-87MG cells were plated at a density of 1400 cells/cm^2 in […] in standard culture medium. Cells were allowed to attach and start growing for 3 days; the seeding media were then changed to experimental media. Cells were treated for 7 days with ZOLADEX® (10^−10-10^−6 M); medium was changed every two days. Following treatment, cells were collected and counted by hemocytometer. Data obtained from three independent experiments were analyzed according to the Dunnett's test after one-way ANOVA.
# [2] = system: BLM melanoma tumor cell line implant; format: in vivo, nude mice
# Method: In one series of experiments, nude mice bearing human melanoma tumor cell line xenotransplants were treated for two weeks with 100 μg of Goserelin daily, while a second group of mice was administered 200 μg of Goserelin daily, with an additional daily supplement given by subcutaneous injection. […] The in vivo tumor growth has three predominant characteristics: mitotic activity, dedifferentiation, and infiltration of cells into the surrounding tissue and vessels.
# Results for this study are depicted in FIG. 21. These observations are in line with the previously shown inhibition of Matrigel invasion of BLM cells under Zoladex treatment, as described above. A histological investigation of the tumor before and after treatment has confirmed this finding (results not shown).
# In another set of experiments, ZOLADEX® treatment was administered to mice for a period of four to eight weeks, with an additional GnRH antagonist treatment to avoid any tumor proliferation (i.e. flare up) following cessation of the therapy and to avoid tumor cell receptor depletion.
smiles,measurement,setting,value
"CC(C)C[C@H](NC(=O)[C@@H](COC(C)(C)C)NC(=O)[C@H](Cc1ccc(O)cc1)NC(=O)[C@H](CO)NC(=O)[C@H](Cc1c[nH]c2ccccc12)NC(=O)[C@H](Cc1cnc[nH]1)NC(=O)[C@@H]1CCC(=O)N1)C(=O)N[C@@H](CCCNC(=N)N)C(=O)N1CCC[C@H]1C(=O)NNC(N)=O [ZOLADEX®, D-Ser(tBu)^6Aza-Gly-LHRH]",growth of malignant gliomas,[1],Significant growth-inhibiting effects
same,cell proliferation,BLM melanoma cells,significant and dose-dependent inhibition of cell proliferation
same,cell proliferation,Me15392 melanoma cells,significant and dose-dependent inhibition of cell proliferation
same,tumors smaller with respect to the controls,BLM cells,15-20%
same,inhibition versus controls,U-87MG cells; 10^−6M,about 45%
same,inhibition versus controls,U-87MG cells; 10^−8M,about 23%
same,proliferation rate,U-87MG cells; significantly effective at 10^−8 to 10^−6 M,significant decrease of the proliferation rate
same,reduction in tumor weight,"[2]; 100 μg or 200 μg daily, after two weeks, both groups",50%
same,persistence of tumor growth inhibition despite cessation of treatment,[2]; 100 μg/day or 200 μg/day,~4 weeks
same,growth inhibitory effect compared with 100 μg/day,[2]; 200 μg/day,even more powerful growth inhibitory effect
same,tumor growth once treatment has stopped,[2]; after two weeks (16 days) of treatment,rebound of tumor growth (flare up) is observed
same,inhibition of BLM cell growth,"[2]; mouse, in vivo",about 50%

# — patent US8962558B2, “Methods for reducing GnRH-positive tumor cell proliferation using the GnRH antagonist IN3” (priority 1997, dated 2015)
